Test results published in US20070259875A1, “Triaryl substituted imidazole derivatives and taste-inhibiting uses thereof” (priority 2006, published 2007).

Legend:
human TRPM5 = target: T1, human TRPM5 (Homo sapiens, UniProt Q9NZQ8); experiment: FLIPR membrane potential dye screening assay, ATP-stimulated, TRPM5-transfected HEK293 cells; assay type: cell-based; settings: maximum percent inhibition at concentrations between 10 μM and 100 μM; HEK293 cells with human TRPM5; 10 μM ATP; versus negative control wells
T1 construct: expressed in transfected cells
T1 sequence (Q9NZQ8 1-1165): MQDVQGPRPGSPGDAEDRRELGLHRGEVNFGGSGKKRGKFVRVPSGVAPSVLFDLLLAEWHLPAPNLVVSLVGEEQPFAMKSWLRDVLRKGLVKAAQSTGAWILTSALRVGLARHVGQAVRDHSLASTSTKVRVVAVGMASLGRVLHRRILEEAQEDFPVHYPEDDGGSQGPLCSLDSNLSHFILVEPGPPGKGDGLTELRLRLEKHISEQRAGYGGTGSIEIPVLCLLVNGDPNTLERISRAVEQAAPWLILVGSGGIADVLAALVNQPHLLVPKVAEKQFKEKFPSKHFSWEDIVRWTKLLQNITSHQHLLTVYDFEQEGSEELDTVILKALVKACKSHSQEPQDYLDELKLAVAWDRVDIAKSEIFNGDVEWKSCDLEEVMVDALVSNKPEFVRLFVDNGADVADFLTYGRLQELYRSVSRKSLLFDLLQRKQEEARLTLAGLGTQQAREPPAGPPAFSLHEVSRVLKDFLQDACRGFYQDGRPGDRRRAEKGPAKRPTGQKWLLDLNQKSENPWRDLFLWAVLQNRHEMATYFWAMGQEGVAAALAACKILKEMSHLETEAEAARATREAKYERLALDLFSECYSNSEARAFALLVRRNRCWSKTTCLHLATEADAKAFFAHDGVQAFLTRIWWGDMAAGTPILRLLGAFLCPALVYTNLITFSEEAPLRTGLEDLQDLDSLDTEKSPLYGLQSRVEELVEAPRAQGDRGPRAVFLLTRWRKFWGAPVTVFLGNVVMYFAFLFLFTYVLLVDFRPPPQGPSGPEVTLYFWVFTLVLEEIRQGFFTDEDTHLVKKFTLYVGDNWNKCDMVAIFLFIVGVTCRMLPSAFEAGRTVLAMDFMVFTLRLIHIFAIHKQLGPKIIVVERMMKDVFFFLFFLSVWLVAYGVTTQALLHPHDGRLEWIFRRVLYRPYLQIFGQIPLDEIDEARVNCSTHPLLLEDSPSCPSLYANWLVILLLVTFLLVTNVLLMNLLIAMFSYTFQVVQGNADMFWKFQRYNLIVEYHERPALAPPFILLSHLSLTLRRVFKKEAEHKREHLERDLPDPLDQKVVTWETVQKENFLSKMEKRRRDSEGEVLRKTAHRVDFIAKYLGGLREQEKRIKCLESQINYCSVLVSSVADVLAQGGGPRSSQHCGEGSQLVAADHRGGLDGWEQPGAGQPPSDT
Procedure: Modulation of the activity of human taste receptor proteins was measured in live cells on a fluorescent imaging plate reader (FLIPR). The basis of the assay (shown in FIG. 1) is the calcium-dependent activation of the ion channel which occurs via by activation of a G-protein coupled receptor (GPCR). GPCR activation by an appropriate agonist causes a transient increase in intercellular Ca^2+ ion concentration which in turn causes the ion channel to open, allowing an influx of Na^+ ions. This influx leads to a change in the membrane potential of the cell, which can be monitored as a change in the fluorescent signal from voltage-dependent (membrane potential) fluorescent dyes.
A schematic representation of the assay is shown in FIGS. 2(A) and 2(B), where traces of fluorescent response versus time are shown for cells transfected with a plasmid encoding human TRPM5 or cells containing sham plasmid controls.
For the screening assay, the human TRPM5 gene was cloned, HEK293 cells were transfected with a plasmid containing the gene, and a stable, high expression clone was chosen for the screen. Cells were grown in standard media at 37° C. The day before screening, the cells were removed from flasks and added to 384 well clear bottom plates (12K cells in 20 μL/well). On the assay day, 20 μL of membrane potential dye (Part No. R8123, Molecular Devices Corp.) was added to the cells and dye was allowed to be taken up, i.e., loaded, into the cells for 1 hr at 37° C. […] The assay was started by addition of 10 μL of solution from the compound plate into the cell plate. During this process, continuous fluorescent recordings were made simultaneously for all wells. After addition of the compound solution, the tips were automatically washed and 10 μL of a stimulation solution of 60 μM ATP (an agonist for an endogenous purinurgic GPCR), was added to all wells of the cell plate (to give a final concentration of 10 μM ATP). The height of the response was calculated and percent inhibition values, versus negative control wells, was calculated for the test samples.
(§1) Unless otherwise indicated, the data in Table 1 were determined using the assays described above, providing maximum percent inhibition data at concentrations between 10 μM and 100 μM.

[1] = system: GPCR-mediated calcium activation step; experiment: Calcium counterscreen (calcium sensitive dye, ATP stimulation, same cells); assay type: cell-based; settings: maximum percent inhibition at concentrations between 10 μM and 100 μM, Calcium3 dye
Procedure: Two counterscreen assays were run on separate cell plates utilizing the same cells as described above. In the calcium counterscreen, the cells were loaded with a calcium sensitive dye (Calcium3 Dye, Part no. 8090, Molecular Devices Corp.) and stimulated by ATP to check for compounds that block the GPCR-mediated calcium activation step. In the KCl counterscreen, cells were stimulated with 120 mM KCl (to give a final concentration of 20 mM KCl) instead of ATP to check for compounds that inhibit the membrane potential response by virtue of being non-specific ion channel blockers.
as §1

Row | SMILES | TRPM5 Activity (maximum percent inhibition) (human TRPM5) [%] | Calcium Counterscreen (maximum percent inhibition) [1] [%] | melting point [°C]
1 | COC(=O)c1ccc(-c2nc(-c3ccccc3)c(-c3ccccc3)[nH]2)cc1 [Example 1, methyl4-(4,5-diphenyl-1H-imidazol-2-yl)benzoate] | 79 | 0 | –
2 | OCc1ccc(-c2nc(-c3ccccc3)c(-c3ccccc3)[nH]2)cc1 [Example 2, [4-(4,5-diphenyl-1H-imidazol-2-yl)phenyl]methanol] | 50 | 0 | 50
3 | Nc1ccc(-c2nc(-c3ccccc3)c(-c3ccccc3)[nH]2)cc1 [Example 3, 4-(4,5-diphenyl-1H-imidazol-2-yl)aniline] | 42 | 0 | –
4 | Oc1ccc(-c2nc(-c3ccccc3)c(-c3ccccc3)[nH]2)cc1 [Example 4, 4-(4,5-diphenyl-1H-imidazol-2-yl)phenol] | 51 | 0 | –
5 | COC(=O)Nc1ccc(-c2nc(-c3ccccc3)c(-c3ccccc3)[nH]2)cc1 [Example 5, methyl4-(4,5-diphenyl-1H-imidazol-2-yl)phenylcarbamate] | 19 | 0 | –
6 | CC(=O)Nc1ccc(-c2nc(-c3ccccc3)c(-c3ccccc3)[nH]2)cc1 [Example 6, N-[4-(4,5-diphenyl-1H-imidazol-2-yl)phenyl]acetamide] | 29 | 0 | –
7 | N#Cc1ccc(-c2nc(-c3ccccc3)c(-c3ccccc3)[nH]2)cc1 [Example 7, 4-(4,5-diphenyl-1H-imidazol-2-yl)benzonitrile] | 0 | 0 | –
8 | CS(=O)(=O)NCc1ccc(-c2nc(-c3ccccc3)c(-c3ccccc3)[nH]2)cc1 [Example 8, N-[4-(4,5-diphenyl-1H-imidazol-2-yl)benzyl]methanesulfonamide] | 90 | 0 | –
9 | O=C(O)c1ccc(-c2nc(-c3ccccc3)c(-c3ccccc3)[nH]2)cc1 [Example 9, 4-(4,5-diphenyl-1H-imidazol-2-yl)benzoic acid] | 60 | 0 | –
10 | O=[N+]([O-])c1ccc(-c2nc(-c3ccccc3)c(-c3ccccc3)[nH]2)cc1 [Example 10, 2-(4-nitro-phenyl)-4,5-diphenyl-1H-imidazole] | 100 | 0 | –
